This note sets out measurements from patent EP3521435A1, “A HIGH STRINGENCY SELECTION SYSTEM FOR PROTEIN EXPRESSION IN PROLINE-AUXOTROPHIC CELLS” (Bayer AG, priority 2018, dated 2019).

Format in all cases: cell-based, Chinese hamster
Experiment [1] concerns CHO-K1 cells. Put plainly: Flow cytometric analysis of GFP expression (MFI, high fluorescing cells) in stably selected cell populations. As for the experimental part: (§1) To efficiently test the impact of different procedures on improving selection stringency, experimental testing in stable cell populations was performed. As test molecules, enhanced green fluorescent protein (GFP) as well as a human IgG1 were chosen. CHO-K1 cells adapted to growth in suspension in defined medium were obtained from SAFC and cultivated in EX-CELL CD CHO Fusion medium (SAFC 14365C). Custom-made EX-CELL CD CHO Fusion medium without L-Proline (Pro) and without L-Ornithine (Orn) ("proline-free medium") was obtained from SAFC. The expression vector system was based on modified versions of "CET 1019 AS-puro-SceI" and "CET 1019 AD-puro-SceI" for GFP and human IgG1, respectively, from Merck-Millipore, containing the Puromycin selection marker (Puromycin N-acetyl-transferase) known to exert a high selection stringency. To minimize variations in cell populations derived from using different transfections or different vectors, the first series of experiments were conducted using vectors into which a P5CS expression cassette was cloned upstream of a UCOE element, in addition to the Puromycin selection marker present downstream of a gene of interest. This way, it was possible to pool different transfections using the same vector to obtain a common starting point, and split the mixture according to different selection conditions, minimizing any variations that are not due to selection conditions themselves. Expression of long and short isoform of murine P5CS (Protein: Delta-1-pyrroline-5-carboxylate synthase; Gene: Aldh18a1; UniProtKB accession number: Q9Z110-1 & Q9Z110-2) was driven by a SV40 promoter. A SV40 polyadenylation sequence was used at the 3' end of the gene. More details can be found in Table 1. Typically, CHO cells were cultivated in EX-CELL CD CHO Fusion medium containing 6 mM GlutaMAX (Thermo Fisher, 35050-38) ("CD-Fusion medium") at 37 °C with 5% CO2. Cells were grown to logarithmic phase under shaking conditions for transfections. 1e7 cells/cuvette were transfected using nucleofection (Amaxa Nucleofector II, following the manufacturer's recommendations) with 5 µg of linearized DNA. After transfection, cells were taken up in 1 ml medium and transferred into 1 well of a 6 well microtiter plate (MTP) already containing 1 ml medium. The cells were incubated for 24 h without shaking, after which 9 ml medium were added and cells were washed (either in standard or proline-free medium). Multiple transfections were pooled, if applicable. Cells were adjusted to 2e5 viable cells/ml and 10 ml were transferred to T-25 flasks. Reference cell populations were selected using 10 µg/ml Puromycin in CD-Fusion medium. For P5CS-based selection, EX-CELL CD CHO Fusion medium (custom-made, SAFC) containing 6 mM GlutaMAX without proline and without ornithine was used ("proline-free" or "CD-Fusion w/o Pro" medium), with or without additional selection pressure.
(§2) Cell viability of the different populations was monitored over time. As soon as cell populations appeared to recover from selection pressure, cells were transferred to Shake Flask or TubeSpins for expansion in suspension under shaking conditions. Subsequently, stable cell populations transfected with IgG were seeded at 2e5 viable cells/ml for batch fermentation without selection pressure (i.e. standard CD-Fusion medium containing proline and no other selective agents). The cells were cultivated for 5-10 days, viable cell densities and productivity were monitored over time. IgG titers were determined using Poros A-HPLC method. Typically, final batch titers were recorded at a time point at which majority of cultures had around 70% viability. Stable cell populations transfected with GFP vector were subjected to analysis by flow cytometry using Guava easyCyte 8HT Benchtop Flow Cytometer (Millipore). 250 µl of cell culture were transferred to 96 MTP and washed with PBS. Dead cells were excluded from analysis using propidium iodide (PI). […]
A general note: Flow cytometry measures light scatter and fluorescence of single cells or particles in a stream.

Experiment [2] concerns CHO-K1 cells. As to the kind of experiment: Batch fermentation in shake flasks of human IgG1 expressing stable cell populations (Poros A-HPLC titer, viable cell density, viability). Conditions: human IgG1, pJF1577, non-selecting conditions. As for the experimental part: as §1, §2
Experiment [3] relates to CHO-K1 cells. As to the kind of experiment: Cell viability post-transfection of transfected cell populations under selection conditions. The conditions noted are these: for concentration at which recovery kinetics were affected: Table 8. Here is the method:
as §1, §2

[4] abbreviates: day 20 post-transfection, pJF1556, CD-Fusion w/o Pro + 0.1 mM A2C.
[5] abbreviates: day 20 post-transfection, pJF1556, CD-Fusion w/o Pro + 0.1 mM A2C + 10 µg/ml Puromycin.
Where [6] appears, read: day 20 post-transfection, pJF1556, CD-Fusion w/o Pro + 0.25 mM A2C.

Turning to `O=C(O)[C@@H]1CCN1` [A2C, L-Azetidine-2-carboxylic acid], the “Frequency of high fluorescing cells” value in experiment [1] (setting [4]) was 7.1%; in experiment [1] (setting [5]) it was 13.6%; in experiment [1] (setting [6]), 7.1%. The “Median Fluorescence Intensity (MFI) (yellow)” value in experiment [1] (setting [4]) was 5743; in experiment [1] (setting [5]), 9448; in experiment [1] (setting [6]), 7578. Moreover, the “Batch titer day 7” value was determined as 82 mg/L in experiment [2] (selected in CD-Fusion w/o Pro + 0.1 mM A2C + 10 µg/ml Puromycin); 135 mg/L in experiment [2] (selected in CD-Fusion w/o Pro + 0.1 mM A2C); 145 mg/L in experiment [2] (selected in CD-Fusion w/o Pro + 0.25 mM A2C + 10 µg/ml Puromycin); 166 mg/L in experiment [2] (selected in CD-Fusion w/o Pro + 0.25 mM A2C); 34 mg/L in experiment [2] (selected in CD-Fusion w/o Pro + 0.5 mM A2C + 10 µg/ml Puromycin); 166 mg/L in experiment [2] (selected in CD-Fusion w/o Pro + 0.5 mM A2C). Moreover, the “Viability on day 13 post-transfection” value in experiment [3] (MOCK, CD-Fusion w/o Pro + 0.5 mM A2C + 10 µg/ml Puromycin) is 15%; in experiment [3] (pJF1556, CD-Fusion w/o Pro + 0.1 mM A2C), 85%; in experiment [3] (pJF1556, CD-Fusion w/o Pro + 0.1 mM A2C + 10 µg/ml Puromycin), 62%; in experiment [3] (pJF1556, CD-Fusion w/o Pro + 0.25 mM A2C), 70%; in experiment [3] (pJF1556, CD-Fusion w/o Pro + 0.25 mM A2C + 10 µg/ml Puromycin) it was 22%; in experiment [3] (pJF1556, CD-Fusion w/o Pro + 0.5 mM A2C) it was 21%. Further, the “Viability on day 13 post-transfection” value in experiment [3] (pJF1556, CD-Fusion w/o Pro + 0.5 mM A2C + 10 µg/ml Puromycin) worked out at 21%.
For the molecule `O=C(O)C1NCCS1` (centres unmarked) [Thiazolidine-2-carboxylic acid], the “Frequency of high fluorescing cells” value in experiment [1] (day 15 post-transfection, pJF1555, CD-Fusion w/o Pro + 0.1 mM Thiazolidine-2-carboxylic acid) worked out at 4.9%; in experiment [1] (day 15 post-transfection, pJF1555, CD-Fusion w/o Pro + 0.5 mM Thiazolidine-2-carboxylic acid), 2.3%; in experiment [1] (day 15 post-transfection, pJF1555, CD-Fusion w/o Pro + 1 mM Thiazolidine-2-carboxylic acid) it was 0.0%; in experiment [1] (day 15 post-transfection, pJF1555, CD-Fusion w/o Pro + 2.5 mM Thiazolidine-2-carboxylic acid), 0.0%; in experiment [1] (day 15 post-transfection, pJF1555, CD-Fusion w/o Pro + 10 mM Thiazolidine-2-carboxylic acid) it was 0.0%. The “Viability on day 12 post-transfection” value came out at 87% in experiment [3] (pJF1555, CD-Fusion w/o Pro + 0.1 mM Thiazolidine-2-carboxylic acid); 78% in experiment [3] (pJF1555, CD-Fusion w/o Pro + 0.5 mM Thiazolidine-2-carboxylic acid); 11% in experiment [3] (pJF1555, CD-Fusion w/o Pro + 1 mM Thiazolidine-2-carboxylic acid); 15% in experiment [3] (pJF1555, CD-Fusion w/o Pro + 2.5 mM Thiazolidine-2-carboxylic acid); 16% in experiment [3] (pJF1555, CD-Fusion w/o Pro + 10 mM Thiazolidine-2-carboxylic acid). Besides, in experiment [3] (pJF1555, proline-free medium), the “concentration at which recovery kinetics were affected” value is 0.5 to 1 mM.
In the case of `O=C(O)[C@@H]1C[C@H](O)CN1` [cis-4-Hydroxy-L-Proline], the “Frequency of high fluorescing cells” value in experiment [1] (day 15 post-transfection, pJF1555, CD-Fusion w/o Pro + 0.25 mM cis-4-Hydroxy-L-Proline) amounted to 3.3%; in experiment [1] (day 15 post-transfection, pJF1555, CD-Fusion w/o Pro + 0.5 mM cis-4-Hydroxy-L-Proline), 1.7%; in experiment [1] (day 15 post-transfection, pJF1555, CD-Fusion w/o Pro + 2.5 mM cis-4-Hydroxy-L-Proline) it was 1.4%; in experiment [1] (day 15 post-transfection, pJF1555, CD-Fusion w/o Pro + 5 mM cis-4-Hydroxy-L-Proline), 0.0%; in experiment [1] (day 15 post-transfection, pJF1555, CD-Fusion w/o Pro + 10 mM cis-4-Hydroxy-L-Proline), 0.0%. The “Viability on day 12 post-transfection” value in experiment [3] (pJF1555, CD-Fusion w/o Pro + 0.25 mM cis-4-Hydroxy-L-Proline) was found to be 89%; in experiment [3] (pJF1555, CD-Fusion w/o Pro + 0.5 mM cis-4-Hydroxy-L-Proline), 88%; in experiment [3] (pJF1555, CD-Fusion w/o Pro + 1 mM cis-4-Hydroxy-L-Proline), 65%; in experiment [3] (pJF1555, CD-Fusion w/o Pro + 2.5 mM cis-4-Hydroxy-L-Proline), 13%; in experiment [3] (pJF1555, CD-Fusion w/o Pro + 5 mM cis-4-Hydroxy-L-Proline) it was 13%; in experiment [3] (pJF1555, CD-Fusion w/o Pro + 10 mM cis-4-Hydroxy-L-Proline), 20%. In addition, in experiment [3] (pJF1555, proline-free medium), the “concentration at which recovery kinetics were affected” value is ≥ 1 mM.
Take `O=C(O)[C@@H]1C[C@@H](O)CN1` [trans-4-Hydroxy-L-Proline]: the “Frequency of high fluorescing cells” value in experiment [1] (day 15 post-transfection, pJF1555, CD-Fusion w/o Pro + 5 mM trans-4-Hydroxy-L-Proline) came out at 2.6%; in experiment [1] (day 15 post-transfection, pJF1555, CD-Fusion w/o Pro + 10 mM trans-4-Hydroxy-L-Proline) it was 2.6%. The “Viability on day 12 post-transfection” value in experiment [3] (pJF1555, CD-Fusion w/o Pro + 5 mM trans-4-Hydroxy-L-Proline) is on record as 84%; in experiment [3] (pJF1555, CD-Fusion w/o Pro + 10 mM trans-4-Hydroxy-L-Proline) it was 84%. In experiment [3] (up to 10 mM, pJF1555, proline-free medium), the selection pressure result is listed as “no increased selection pressure observable”.
